Laboratory results: US12304914B2, “Pyrazolo[3,4-d]pyrrolo[1,2-b]pyridazinyl compounds useful as IRAK4 inhibitors” (BRISTOL-MYERS SQUIBB COMPANY, priority 2019, dated 2025)
pIC50: −log10 of the molar value.

target: IRAK4 (Homo sapiens (Human), UniProt Q9NWZ3); experiment: IRAK4 Inhibition Assay; assay type: biochemical; conditions: ATP 500 μM; FL-peptide 1.5 μM; IRAK4 0.6 nM; 60 min room temperature; Caliper LABCHIP 3000
Description: The assays were performed in U-bottom 384-well plates. The final assay volume was 30 μL prepared from 15 μL additions of enzyme and substrates (fluoresceinated peptide and ATP) and test compounds in assay buffer (20 mM HEPES pH 7.2, 10 mM MgCl2, 0.015% Brij 35 and 4 mM DTT). The reaction was initiated by the combination of IRAK4 with substrates and test compounds. The reaction mixture was incubated at room temperature for 60 min. and terminated by adding 45 μL of 35 mM EDTA to each sample. The reaction mixture was analyzed on the Caliper LABCHIP® 3000 (Caliper, Hopkinton, MA) by electrophoretic separation of the fluorescent substrate and phosphorylated product. Inhibition data were calculated by comparison to no enzyme control reactions for 100% inhibition and vehicle-only reactions for 0% inhibition. The final concentrations of reagents in the assays are ATP, 500 μM; FL-IPTSPITTTYFFFKKK peptide 1.5 μM; IRAK4, 0.6 nM; and DMSO, 1.6%.

IRAK4, sequence (Q9NWZ3 whole entry): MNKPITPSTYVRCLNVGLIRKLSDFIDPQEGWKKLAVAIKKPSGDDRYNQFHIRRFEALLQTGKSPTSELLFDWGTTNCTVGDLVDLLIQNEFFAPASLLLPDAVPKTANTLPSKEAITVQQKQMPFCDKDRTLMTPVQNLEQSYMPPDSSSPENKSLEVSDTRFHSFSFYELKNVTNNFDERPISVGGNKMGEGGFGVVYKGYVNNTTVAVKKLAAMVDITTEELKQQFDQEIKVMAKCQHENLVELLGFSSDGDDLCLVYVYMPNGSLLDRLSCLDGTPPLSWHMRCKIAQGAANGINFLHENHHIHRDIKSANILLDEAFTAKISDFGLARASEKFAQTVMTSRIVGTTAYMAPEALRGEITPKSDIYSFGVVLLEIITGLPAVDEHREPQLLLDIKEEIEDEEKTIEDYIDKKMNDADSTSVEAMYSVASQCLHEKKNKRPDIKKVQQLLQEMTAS

Row | Structure (SMILES) | pIC50
1 | CC(C)n1nc(NCC2CCNCC2)c2cnn3cc(-c4cccnc4)cc3c21 [Example 1, 1-isopropyl-N-(piperidin-4-ylmethyl)-8-(pyridin-3-yl)-1H-pyrazolo[3,4-d]pyrrolo[1,2-b] pyridazin-3-amine] | 6.05
2 | COC(=O)N1CCC(CNc2nn(C(C)C)c3c2cnn2cc(-c4cccnc4)cc32)CC1 [Example 2, methyl 4-(((1-isopropyl-8-(pyridin-3-yl)-1H-pyrazolo[3,4-d]pyrrolo[1,2-b]pyridazin-3-yl)amino)methyl)piperidine-1-carboxylate] | 6.00
3 | CC(C)n1nc(NCC2CCNCC2)c2cnn3cc(-c4ccncc4)cc3c21 [Example 3, 1-isopropyl-N-(piperidin-4-ylmethyl)-8-(pyridin-4-yl)-1H-pyrazolo[3,4-d] pyrrolo[1,2-b]pyridazin-3-amine] | 6.68
4 | COC(=O)N1CCC(CNc2nn(C(C)C)c3c2cnn2cc(-c4ccncc4)cc32)CC1 [Example 4, methyl 4-(((1-isopropyl-8-(pyridin-4-yl)-1H-pyrazolo[3,4-d]pyrrolo[1,2-b]pyridazin-3-yl)amino)methyl)piperidine-1-carboxylate] | 6.63
5 | CC(C)n1nc(NCC2CCN(C)CC2)c2cnn3cc(-c4ccncc4)cc3c21 [Example 5, 1-isopropyl-N-((1-methylpiperidin-4-yl)methyl)-8-(pyridin-4-yl)-1H-pyrazolo[3,4-d] pyrrolo[1,2-b]pyridazin-3-amine] | 6.84

The remaining lines, values ahead:

Row | pIC50 | Structure (SMILES)
6 | 6.12 | CC(C)n1nc(NC2CCNCC2)c2cnn3cc(-c4ccncc4)cc3c21 [Example 9, 1-isopropyl-N-(piperidin-4-yl)-8-(pyridin-4-yl)-1H-pyrazolo[3,4-d]pyrrolo[1,2-b] pyridazin-3-amine]
7 | 6.86 | CC(=O)N1CCC(Nc2nn(C(C)C)c3c2cnn2cc(-c4ccncc4)cc32)CC1 [Example 8, 1-(4-((1-isopropyl-8-(pyridin-4-yl)-1H-pyrazolo[3,4-d]pyrrolo[1,2-b]pyridazin-3-yl)amino)piperidin-1-yl)ethan-1-one]
8 | 6.16 | COC(=O)NC1CCC(Nc2nn(C(C)C)c3c2cnn2cc(-c4cccnc4)cc32)CC1 (stereo not drawn) [Example 6, methyl (4-((1-isopropyl-8-(pyridin-3-yl)-1H-pyrazolo[3,4-d]pyrrolo[1,2-b]pyridazin-3-yl)amino)cyclohexyl)carbamate]
9 | 6.74 | COC(=O)NC1CCC(Nc2nn(C(C)C)c3c2cnn2cc(-c4ccncc4)cc32)CC1 (stereo not drawn) [Example 7, methyl (4-((1-isopropyl-8-(pyridin-4-yl)-1H-pyrazolo[3,4-d]pyrrolo[1,2-b]pyridazin-3-yl)amino)cyclohexyl)carbamate]
